Measurements published in patent US9493444B2 (Merck Patent GmbH, priority 2012, dated 2016).

tested on: Wnt pathway (TCF-dependent transcription in HEK293 luciferase reporter cell line with ER-DSH construct); experiment: Cellular assay for Wnt pathway activity (luciferase reporter); format: cell-based; settings: Homo sapiens; Wnt pathway inhibition, HEK293 luciferase reporter cells (ER-DSH, TCF promoter), 24 hours incubation, estrogen-induced
Outline: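 Compounds (30 μM down to 1 nM) were incubated 24 h on cells induced for TCF-dependent transcription with estrogen. Luciferase activity was read by luminescence, normalized to untreated vehicle control, and fitted for IC50.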

SMILES | IC50 [µM]
CC(=O)N(C)CCN(C)c1cncc(Oc2ccc(-c3cc(Br)cnc3N)cc2)n1 [Compound 252, N-[2-({6-[4-(2-Amino-5-bromo-pyridin-3-yl)-phenoxy]-pyrazin-2-yl}-methyl-amino)-ethyl]-N-methyl-acetamide] | 0.2 to 1
CC(=O)N(C)CCN(C)c1cncc(OCc2ccc(F)cc2)n1 [Compound 104, N-(2-{[6-(4-Fluoro-benzyloxy)-pyrazin-2-yl]-methyl-amino}-ethyl)-N-methyl-acetamide] | 1 to 10
COC(=O)CCc1ccc(Oc2cncc(N(C)CCN(C)C(C)=O)n2)cc1 [Compound 141, 3-[4-(6-{[2-(Acetyl-methyl-amino)-ethyl]-methyl-amino}-pyrazin-2-yloxy)-phenyl]-propionic acid methyl ester] | 1 to 10
CC(=O)N(CCN(c1cncc(Oc2ccc(F)cc2)n1)C(C)C)C(C)C [Compound 168, N-(2-{[6-(4-Fluoro-phenoxy)pyrazin-2-yl]-isopropyl-amino}-ethyl)-N-isopropyl-acetamide] | 0.2 to 1
COc1ccc(Oc2cncc(NCC3CCCN(C(C)=O)C3)n2)cc1 (centres unmarked) [Compound 38, 1-(3-{[6-(4-Methoxy-phenoxy)-pyrazin-2-ylamino]-methyl}-piperidin-1-yl)-ethanone] | 1 to 10
CC(=O)N(C)CCCc1cncc(Oc2ccc(-c3ccc(N4CCOCC4)nc3)cc2)c1 [Compound 318, N-Methyl-N-(3-{5-[4-(6-morpholin-4-yl-pyridin-3-yl)-phenoxy]-pyridin-3-yl}-propyl)-acetamide] | 0.2 to 1
COc1ccc(Oc2cncc(N3CCCC(CNC(=O)OC(C)(C)C)C3)n2)cc1 (centres unmarked) [Compound 40, {1-[6-(4-Methoxy-phenoxy)-pyrazin-2-yl]-piperidin-3-ylmethyl}-carbamic acid tert-butyl ester] | 1 to 10
COc1ccc(Oc2cncc(N(C)CCN(C)C(=O)Cc3ccc(F)cc3)n2)cc1 [Compound 63, 2-(4-Fluoro-phenyl)-N-(2-{[6-(4-methoxy-phenoxy)-pyrazin-2-yl]-methyl-amino}-ethyl)-N-methyl-acetamide] | 1 to 10
COc1cc(C(C)=O)ccc1Oc1cncc(N(C)CCN(C)C(C)=O)n1 [Compound 243, N-(2-{[6-(4-Acetyl-2-methoxy-phenoxy)-pyrazin-2-yl]-methyl-amino}-ethyl)-N-methyl-acetamide] | 1 to 10
CC(=O)N(C)CCCc1cncc(Oc2ccc(-c3ccc(N4CCOCC4)nc3)cc2F)n1 [Compound 267, N-(3-{6-[2-Fluoro-4-(6-morpholin-4-yl-pyridin-3-yl)-phenoxy]-pyrazin-2-yl}-propyl)-N-methyl-acetamide] | 0.2 to 1
CC(=O)Nc1cccc(-c2ccc(Oc3cncc(NCCN(C)C(C)=O)n3)c(F)c2)n1 [Compound 259, N-(2-{6-[4-(6-Acetylamino-pyridin-2-yl)-2-fluoro-phenoxy]-pyrazin-2-ylamino}-ethyl)-N-methyl-acetamide] | 1 to 10
CC(=O)N(C)CCN(C)c1cncc(Oc2ccc(-c3cc(N4CCN(C)CC4)ccn3)cc2)n1 [Compound 173, N-Methyl-N-{2-[methyl-(6-{4-[4-(4-methyl-piperazin-1-yl)-pyridin-2-yl]-phenoxy}-pyrazin-2-yl)-amino]-ethyl}-acetamide] | 1 to 10
CC(=O)N(C)CCN(C)c1cncc(Oc2ccc(-c3cccc(N4CCN(C)CC4)n3)cc2)n1 [Compound 12] | < 0.2
CN(CCN(C)S(C)(=O)=O)c1cncc(Oc2ccc(F)cc2)n1 [Compound 281, N-(2-{[6-(4-Fluoro-phenoxy)-pyrazin-2-yl]-methyl-amino}-ethyl)-N-methyl-methane-sulfonamide] | 1 to 10
CC(=O)N(C)CCN(C)c1cncc(Oc2ccc(-c3ccn(C)n3)c(F)c2F)n1 [Compound 256, N-[2-({6-[2,3-Difluoro-4-(1-methyl-1H-pyrazol-3-yl)-phenoxy]-pyrazin-2-yl}-methyl-amino)-ethyl]-N-methyl-acetamide] | 0.2 to 1
Cc1ccc(-c2ccc(Oc3cncc(NCCC(N)=O)n3)cc2)nc1 [Compound 298, 3-{6-[4-(5-Methyl-pyridin-2-yl)-phenoxy]-pyrazin-2-ylamino}-propionamide] | 0.2 to 1
CSc1cccc(Oc2cncc(N(C)CCN(C)C(=O)CF)n2)c1 [Compound 76, 2-Fluoro-N-methyl-N-(2-{methyl-[6-(3-methyl-sulfanyl-phenoxy)-pyrazin-2-yl]-amino}-ethyl)-acetamide] | 0.2 to 1
CC(=O)N(C)CCCc1cncc(Oc2ccc(-c3cnc(N)cn3)cc2)n1 [Compound 214, N-(3-{6-[4-(5-Amino-pyrazin-2-yl)-phenoxy]-pyrazin-2-yl}-propyl)-N-methyl-acetamide] | 0.2 to 1
CNC(=O)CCN(C)c1cncc(Oc2ccc(F)cc2)n1 [Compound 29] | 0.2 to 1
CC(=O)N(C)CCN(C)c1cncc(Oc2ccc(-c3cccc(N)n3)cc2)n1 [Compound 205, N-[2-({6-[4-(6-Amino-pyridin-2-yl)-phenoxy]-pyrazin-2-yl}-methyl-amino)-ethyl]-N-methyl-acetamide] | < 0.2
O=C1CCCCN1CCCc1cncc(Oc2ccc(-c3ccc(N4CCOCC4)nc3)cc2)n1 [Compound 25, 1-(3-{6-[4-(6-Morpholin-4-yl-pyridin-3-yl)-phenoxy]-pyrazin-2-yl}-propyl)-piperidin-2-one] | < 0.2
CC(=O)N(C)CCN(C)c1cncc(Oc2ccc(-c3cccc(S(C)(=O)=O)n3)cc2)n1 [Compound 206, N-[2-({6-[4-(6-Methane-sulfonyl-pyridin-2-yl)-phenoxy]-pyrazin-2-yl}-methyl-amino)-ethyl]-N-methyl-acetamide] | < 0.2
NC(=O)CCNc1cncc(Oc2ccc(-c3cnc(N)cn3)cc2)n1 [Compound 301, 3-{6-[4-(5-Amino-pyrazin-2-yl)-phenoxy]-pyrazin-2-ylamino}-propionamide] | 1 to 10
CC(=O)N(C)CCNc1cncc(Oc2ccc(-c3ccc(C#N)nc3)cc2)n1 [Compound 276, N-(2-{6-[4-(6-Cyano-pyridin-3-yl)-phenoxy]-pyrazin-2-ylamino}-ethyl)-N-methyl-acetamide] | 0.2 to 1
CC(=O)N(C)CCCc1cncc(Oc2ccc(-c3ccncc3C#N)cc2)n1 [Compound 213, N-(3-{6-[4-(3-Cyano-pyridin-4-yl)-phenoxy]-pyrazin-2-yl}-propyl)-N-methyl-acetamide] | 0.2 to 1
CC(=O)N(C)CCCc1cncc(Oc2ccc(-c3cnc(N)cn3)cc2)c1 [Compound 323, N-(3-{5-[4-(5-Amino-pyrazin-2-yl)-phenoxy]-pyridin-3-yl}-propyl)-N-methyl-acetamide] | 0.2 to 1
CC(=O)N(C)CCN(C)c1cncc(Oc2ccc(C(=O)c3ccco3)cc2)n1 [Compound 157, N-[2-({6-[4-(Furan-2-carbonyl)-phenoxy]-pyrazin-2-yl}-methyl-amino)-ethyl]-N-methyl-acetamide] | < 0.2
Nc1cnc(-c2ccc(Oc3cncc(NCCN4CCCCC4=O)n3)cc2)cn1 [Compound 291, 1-(2-{6-[4-(5-Amino-pyrazin-2-yl)-phenoxy]-pyrazin-2-ylamino}-ethyl)-piperidin-2-one] | < 0.2
CC(=O)N(C)CCN(C)c1cncc(Oc2ccc(-c3ccncc3C#N)cc2)n1 [Compound 144, N-[2-({6-[4-(3-Cyano-pyridin-4-yl)-phenoxy]-pyrazin-2-yl}-methyl-amino)-ethyl]-N-methyl-acetamide] | < 0.2
